The values below come from patent publication US9771389B2, “Tylosin derivatives and method for preparation thereof” (BAYER ANIMAL HEALTH GMBH, priority 2013, dated 2017).

The test system of experiment [1] is M. hemolytica KB346 (Tilmicosin-low sensitivity strain). The experiment can be described thus: Paper disc assay, M. hemolytica KB346. Type of experiment: cell-based, Mannhemia hemolytica. The note with it: 10 mg/6 mm disk; Table 5. As to the method:
(1) Antibacterial activities against Mannheimia and Pasteurella were determined by the following steps: • 1) M. hemolytica KB345 (Tilmicosin-sensitivity strain) and M. hemolytica KB346 (Tilmicosin-low sensitivity strain) were provided. KB 345 strain stored at −80° C. was seeded to BHIB agar medium (10 mL) by using Microbank beads (Pro-Lab) and platinum nail. After statically incubating the KB 345 strain for 24 hours at 37° C., it was seeded to maintaining slant BHIB agar medium (7 mL) by using platinum loop, further statically incubated for 24 hours at 37° C. to obtain slant. One platinum loop of KB 345 strain stored at the slant was inoculated into a large test tube charged with BHIB liquid medium (10 mL) and then incubated for 24 hours at 37° C. with shaking. • 2) A paper disc (ADVANTEC, Φ:6 mm) was impregnated with a solution of test compound and dried under reduced pressure. • 3) To a melted BHIB agar medium was inoculated 1% of the broth obtained from step 1) above to prepare a test plate. After the medium set, the paper disc prepared in step 2) above was put on the plate and it was incubated at 37° C. • 4) After one day, the inhibition zone diameter and clarity (A to E) were determined. For KB346 strain, the same procedures were repeated.

Experiment [2] has as its system Bacillus subtilis ATCC6633. Put plainly: Paper disc assay, Bacillus subtilis. Type of experiment: cell-based. The note with it: S.
Experiment [3] deals with Micrococcus luteus ATCC9341. The experiment can be described thus: Paper disc assay, Micrococcus luteus. Type of experiment: cell-based. The note with it: column 1.
For the next experiment, the system named is Escherichia coli NIHJ. Put plainly: Paper disc assay, Escherichia coli. It counts as cell-based. The note with it: c. The protocol:
(2) Antibacterial activities against other bacteria were determined with Micrococcus luteus ATCC9341 (1), Bacillus subtilis […] (s), Escherichia coli NIHJ (c), Xanthomonas campestris KB88 (X), Mucor racemosus IFO 4581 (Mu) and Candida albicans ATCC 64548 (Ca).
Bacillus subtilis ATCC6633 was incubated in Davis synthetic medium and then the seed broth was combined with the medium in the ratio of 1:99 to obtain a test plate. Micrococcus luteus ATCC9341, Escherichia coli NIHJ and Xanthomonas campestris KB88 were respectively incubated in Nutrient agar medium and inoculated at 0.2%, 0.5% and 1.0%. Mucor racemosus IFO 4581 and Candida albicans ATCC 64548 were respectively incubated in GY agar medium and then inoculated at 0.3% and 0.2%.
A paper disc (ADVANTEC, Φ:6 mm) was impregnated with a solution of test compound and dried under reduced pressure. The paper disc was put on the test plate and it was incubated for 24 hours at 37° C. After incubation, the inhibition zone diameter and clarity (A to E) were determined.

The subject of experiment [4] is Xanthomonas campestris KB88. The experiment can be described thus: Paper disc assay, Xanthomonas campestris. Type of experiment: cell-based. Conditions: X.

Molecules are shown by their SMILES.

Regarding `CC[C@H]1OC(=O)C[C@@H](O)[C@H](C)[C@@H](O[C@@H]2O[C@H](C)[C@@H](O)[C@H](N(C)C)[C@H]2O)[C@@H](CCN2C[C@H](C)C[C@H](C)C2)C[C@@H](C)C(=O)/C=C/C(C)=C/[C@@H]1CO[C@@H]1O[C@H](C)[C@@H](O)[C@@H](OC)[C@H]1OC` [Tilmicosin, tilmicosin, reference compound], the Inhibition zone came out at 11.0 mm in experiment [1]; 14 mm in experiment [2] (0.1 mg/6 mm disc); 11 mm in experiment [2] (1 mg/6 mm disc); 18 mm in experiment [2] (10 mg/6 mm disc); 12 mm in experiment [3] (0.1 mg/6 mm disc); 19 mm in experiment [3] (1 mg/6 mm disc). The Inhibition zone in experiment [3] (10 mg/6 mm disc) is listed as 27.5 mm; with Escherichia coli NIHJ (1 mg/6 mm disc) it was 13 mm; in the experiment on Escherichia coli NIHJ (10 mg/6 mm disc), 20 mm; in experiment [4] (0.1 mg/6 mm disc) it was 12 mm; in experiment [4] (1 mg/6 mm disc), 20 mm; in experiment [4] (10 mg/6 mm disc), 30 mm.
